We go through three molecules from US20240285637A1, “PHOSPHODIESTERASE INHIBITORS FOR THE MITIGATION OF FRAGILE X SYNDROME SYMPTOMS” (THE ROYAL INSTITUTION FOR THE ADVANCEMENT OF …, priority 2021, published 2024).

Assay [1] relates to cerebellar stellate cells. The experiment in a line: Minimal stimulation protocol, evoked IPSCs before and after HFS (failure rate of GABAergic transmission). Format: cell-based, mouse.
Assay [2] deals with cerebellar stellate cells. The assay is described as follows: Cell-attached recordings of action currents (intrinsic plasticity) after HFS of parallel fibers. Format: cell-based, mouse. From the text:
(§1) Cerebellum slice preparation: Mice (P21-35) were anesthetized with isoflurane and immediately decapitated. A block of cerebellar vermis was rapidly dissected from the mouse head and submerged in an ice-cold cutting solution perfused with carbogen gas (95% O2, 5% CO2). Cutting solution contains (in mM): 235 sucrose, 2.5 KCl, 1.25 NaH2PO4, 28 NaHCO3, 0.5 CaCl2, 7 MgCl2, 28 D-glucose, 1 ascorbic acid, and 3 sodium pyruvate (pH 7.4; 305-315 mOsmol/L). The block of vermis was then fastened to a platform, transferred to the slicing chamber and again submerged in ice-cold cutting solution, bubbled with carbogen throughout the remainder of the procedure. Thin slices of cerebellar vermis (300 μm) were obtained with a vibrating tissue sectioner (Leica VT1200; Leica Instruments, Nussloch, Germany). The slices were transferred to oxygenated artificial cerebrospinal fluid (ACSF) and held at room temperature (21° C.-23° C.) for at least 1 h before recordings were performed. […]
(§2) For extracellular stimulations, thin walled borosilicate glass electrodes (OD 1.65 mm, ID 1.15 mm; King Precision Glass Inc, Claremont, CA, USA) were used with a tip resistance of <3 MΩ when filled with ACSF. […] To minimize variability between responses, the stimulating electrode was positioned 50-100 μm away from the recorded cell. […]

The test system of assay [3] is blood vessels in the somatosensory cortex. The assay is described as follows: Acute slice vascular reactivity, somatosensory cortex. The class given is cell-based, mouse. Also on record: effect on the NMDA response (vasodilation) / vasodilation (direct action on blood vessels): dose or concentration left out as unconfirmed.
Assay [4] concerns blood vessels (capillaries) in the molecular layer of the cerebellum. The assay is described as follows: Acute slice vascular reactivity, cerebellar vermis slices (U46619 constriction, NMDA dilation). The class given is cell-based, mouse. More on the design: effect on the NMDA response (vasodilation) / vasodilation (direct action on blood vessels): dose or concentration left out as unconfirmed.

In assay [5] the test system is middle or posterior cerebral arteries. The experiment in a line: Vascular reactivity of isolated pressurized cerebral arteries. The class given is cell-based, mouse. Conditions: various concentrations, extraluminal application. The procedure:
Vascular reactivity: Middle or posterior cerebral arteries were isolated from both WT (n=9) and Fmr1-KO (n=4) mice and vessel diameter was measured using video microscopy (Living Systems Instrumental, Burlington, VT) as previously described. Blood vessels were cannulated in a closed sac preparation in 1×KREBS buffer, and gradually pressurized to 60 mmHg. Vasoconstriction was measured in response to extraluminal application of either thromboxane A2 receptor agonist U46619, NMDA, or acetylcholine (ACh) at increasing concentrations (10-9 to 10-3 mol/L, Tocris Bioscience Ellisville, MO, USA). Data is presented as a percentage change from the basal diameter.

Assay [6] has as its system cerebellar stellate cells. The experiment in a line: Voltage-clamp recordings of pharmacologically-isolated GABAR currents, HFS paired with depolarization. Format: cell-based, mouse. Conditions: Fmr1 KO stellate cells.
Source text: as §1, §2

Assay [7] relates to cerebellar stellate cells. The assay is described as follows: Current-clamp recordings of PF-evoked synaptic events (GABAR plasticity). Format: cell-based, mouse. Conditions: Fmr1 KO stellate cells, 100 μM sildenafil.
Source text: as §1, §2

In assay [8] the test system is Fmr1 KO mice. The experiment in a line: Prepulse inhibition of the acoustic startle response. Format: in vivo, mouse. Conditions: single dose of sildenafil 7.5 mg/kg i.p. From the text:
Behavior experiments-prepulse inhibition: PPI of the acoustic startle response (ASR) was studied in post-pubertal (PD 56-90) animals using an SR-LAB system (San Diego Instruments, San Diego, CA, USA) comprising two sound-attenuating chambers, each equipped with a cylindrical Plexiglas animal enclosure (length 16 cm, inner diameter 8.2 cm). A speaker positioned 24 cm directly above the enclosure provided the broadband tone pulses. A piezoelectric accelerometer affixed to the animal enclosure frame was used to detect and transduce motion resulting from the animals' startle response. Tone pulse parameters were controlled by a microcomputer using the software package (SR-LAB) and interface assembly that also digitized (0-4095), rectified, and recorded stabilimeter readings. All PPI studies were conducted between 09:00 and 17:00 h. Animals randomly received either saline or sildenafil (7.5 mg/kg i.p.) treatment. […] On the first two trials, the magnitude of the startle response to a 30 ms lasting 120 dB tone was measured. […] ASR was measured at each of the four prepulse intensities on five trials; animals were randomly presented with the startle tone alone during the other 10 trials. […]

In assay [9] the test system is Fmr1 KO mice. The experiment in a line: Locomotor activity in activity boxes (open field). The class given is in vivo, mouse. Conditions: sildenafil 7.5 mg/kg i.p. The procedure:
Behavior experiments-locomotor activity: The locomotor activity was measured in an environment (activity boxes) novel to the animals, as described previously. Briefly, mice were handled for about 5 minutes once a day for one week before the testing. On the day of testing, animals were brought in their home cages to the anteroom (a room adjacent to the testing room separated by a door) and kept there for 30 minutes before drug or vehicle administration. Animals of both genotypes were randomly divided into two groups. One group received an i.p. injection of sildenafil (7.5 mg/kg; drug dissolved in sterilized PBS with 2% DMSO) and the other group an i.p. injection of the vehicle. One hour after the drug or vehicle administrations, the animals were placed in individual activity boxes (AccuScan Instruments, Inc., Columbus, OH, USA) (L×W×H=17.5 cm×10 cm×26 cm) in a dimly lit testing room where their locomotor activity was monitored for 90 min. The activity boxes were equipped with infrared sensors; beam breaks by the animals were used to assess locomotor activity. Data were collected using the Versamax™ Software (version 4.0, 2004; AccuScan Instruments, Inc.). The total horizontal activity for the whole 90 min session was used in the analysis.

Entries after “also recorded” stand apart in the source; their conditions may differ.

Turning to `N[C@H](CCCP(=O)(O)O)C(=O)O` [APV, (2R)-amino-5-phosphonovaleric acid], the “decrease of failure rate post-HFS” value in [1] (WT mice, in the presence of APV, data not shown) is about 5%. For the same molecule, in assay [2] (WT stellate cells, 10 μM APV, 25 minutes after HFS), the “long-term increase in basal firing rates after HFS of PFs” value is reported as “no long-term increase; also recorded: no increase in action potential firing”.
In the case of `CCCCC[C@H](O)/C=C/[C@@H]1[C@@H](C/C=C\CCCC(=O)O)[C@H]2CO[C@@H]1C2` [U46619], the “ability to vasoconstrict blood vessels, WT vs Fmr1 KO in all the conditions” value in [3] (cortex (FIG. 5O)) and in [4] (cerebellum (FIG. 5N)) was “similar” each time. Also, the “frequency of blood vessel constriction, Fmr1 KO brain slices compared to WT” value in assay [4] (75 nM) was “much less frequently”. Moreover, the “vasoconstriction, Fmr1 KO brain slices compared to WT” value in [4] (150 nM) is listed as “reduced vasoconstriction”. Further, the “blood vessels with no response (no constriction), number” value in assay [4] (Fmr1 KO mice, [U46619] 75 nM) amounted to 2; in [4] (Fmr1 KO mice, [U46619] 150 nM), 11; in assay [4] (WT mice, [U46619] 75 nM) it was 3; in [4] (WT mice, [U46619] 150 nM), 2. The “blood vessels with response (constricted), number” value in [4] (Fmr1 KO mice, [U46619] 75 nM) was found to be 8; in assay [4] (Fmr1 KO mice, [U46619] 150 nM), 25; in [4] (WT mice, [U46619] 75 nM), 10; in [4] (WT mice, [U46619] 150 nM) it was 18. The “proportion of blood vessels that constricted” value was found to be 80% in assay [4] (Fmr1 KO mice, [U46619] 75 nM); 69% in assay [4] (Fmr1 KO mice, [U46619] 150 nM); 77% in assay [4] (WT mice, [U46619] 75 nM); 90% in assay [4] (WT mice, [U46619] 150 nM). Besides, in assay [5], the “vasoconstriction of MCA/PCA, Fmr1 KO compared to WT” value is “reduced”.
Consider `CCCc1nn(C)c2c(=O)[nH]c(-c3cc(S(=O)(=O)N4CCN(C)CC4)ccc3OCC)nc12` [sildenafil], for which the “effect on the NMDA response (vasodilation)” value is on record as “rescue some of the deficits” in assay [3] (Fmr1 KO cortex, pre-incubation with sildenafil, at least some blood vessels) and “little or no effect” in assay [4] (Fmr1 KO cerebellum, pre-incubation with sildenafil). Moreover, in assay [6] (100 μM sildenafil), the “GABAR plasticity (NMDAR-mediated inhibitory synapse strengthening), voltage-clamp” value is listed as “rescued the complete loss of GABAR plasticity”. Besides, the “baseline properties of the cells” value in [6] (current-clamp and voltage-clamp, data not shown) is on record as “did not, however, affect baseline properties”. The “GABAR plasticity (NMDAR-mediated inhibitory synapse strengthening), current-clamp” value in assay [7] was “rescued the complete loss of GABAR plasticity”. The “failure rate (mean)” value in assay [1] (Fmr1 KO stellate cells, 10−100 μM sildenafil in the patch electrode, baseline, n=5) is 90.9+/−3.57%. In addition, the “failure rate, failed events (mean)” value in assay [1] (Fmr1 KO stellate cells, 10−100 μM sildenafil in the patch electrode, post-HFS, n=5) was 59.44+/−8.36%. The “iLTP following HFS of parallel fibers” value in assay [1] (Fmr1 KO stellate cells, sildenafil in the patch electrode) is “remarkable restoration of iLTP”. Also, in the assay with Fmr1 KO mice [8], the “deficits in prepulse inhibition (PPI)” value was “fully correct deficits; also recorded: rescued”. For the same molecule, the “long-term increase in baseline firing rates following HFS of PFs” value in assay [2] (Fmr1 KO stellate cells, pre-treatment with 100 μM sildenafil) is on record as “restored the long-term increase in baseline firing rates”. In the assay on Fmr1 KO mice [9], the “enhanced locomotor activity / deficits in locomotion” value is “normalized the enhanced locomotor activity; also recorded: rescued”.
